Experimental data as given in patent US20260055083A1, “APOL1 INHIBITORS AND METHODS OF USE” (Maze Therapeutics, Inc., priority 2022, published 2026).

Columns and labels:
APOL1 G2 [1] = biological target: T1, APOL1 G2 (Homo sapiens, UniProt O14791, DEL388-389); experiment: APOL1 G2 FLIPR calcium influx assay (HEK T-REx/GCaMP6f/APOL1 G2 K6.3 cells); type: cell-based; conditions: HEK293 clone expressing GCaMP6f, doxycycline-induced APOL1 G2; prevention of calcium influx; geometric mean of at least 2 assay runs
T1 construct: expressed in transfected cells; host or cells: HEK293/T-REx APOL1 G2 clone #2, doxycycline-inducible
T1 sequence (O14791 with tags, fused parts or gaps DEL388-389): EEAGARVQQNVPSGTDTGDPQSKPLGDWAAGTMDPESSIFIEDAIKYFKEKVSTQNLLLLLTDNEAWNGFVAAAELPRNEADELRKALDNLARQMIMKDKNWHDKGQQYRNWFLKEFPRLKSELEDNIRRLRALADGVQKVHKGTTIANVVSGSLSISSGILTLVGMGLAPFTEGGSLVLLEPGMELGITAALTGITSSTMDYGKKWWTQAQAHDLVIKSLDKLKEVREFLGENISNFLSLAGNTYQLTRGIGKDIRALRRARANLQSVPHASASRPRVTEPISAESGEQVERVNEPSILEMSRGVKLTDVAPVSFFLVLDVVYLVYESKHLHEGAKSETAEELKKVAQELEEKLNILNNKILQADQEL
Outline: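 HEK293 clone stably expressing GCaMP6f, APOL1 G2 induced with doxycycline for 6 h; compounds (duplicate 8-point dose response) preincubated 10 min at room temperature in Ca2+-free Tyrode's buffer, pH 7.4. Ca2+ added to 5 mM final, influx read on FLIPR; AC50 is geometric mean of ≥2 runs.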

APOL1 G2 [2] = biological target: T1, APOL1 G2; experiment: APOL1 G2 HEK293 rescue of cell death caused by overexpression of APOL1 (CellTiter-Glo); type: cell-based; conditions: HEK293/T-REx APOL1 G2 clone #2, doxycycline induction, 17 hours, CellTiter-Glo luminescence; reversal of cell death; geometric mean of at least 2 assay runs
Outline: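 Doxycycline (6 ng/mL)-induced HEK293/T-REx APOL1 G2 clone seeded at 5,000 cells/well with compound in duplicate 8-point 3-fold series (0.5% DMSO), 17 h at 37 °C. CellTiter-Glo luminescence; EC50 from four-parameter logistic fit, geometric mean of ≥2 runs.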

AC50 (APOL1 G2 [1]) | Structure (SMILES) | EC50 (APOL1 G2 [2])
279 nM | C[C@@H]1C[C@H](COc2ccc(S(C)(=O)=O)cn2)CN1CCc1cc(Cl)cc(C#N)c1 [Compound 12, 3-chloro-5-{2-[(2R,4S)-4-{[(5-methanesulfonylpyridin-2-yl)oxy]methyl}-2-methylpyrrolidin-1-yl]ethyl}benzonitrile] | 99.2 nM
290 nM | C[C@@H]1CN(CCc2cc(Cl)cc(C#N)c2)C[C@H]1COc1ccc(S(=O)(=O)C2(C)COC2)cc1 [Compound 13, 3-chloro-5-{2-[(3S,4S)-3-methyl-4-({4-[(3-methyloxetan-3-yl)sulfonyl]phenoxy}methyl)pyrrolidin-1-yl]ethyl}benzonitrile] | 41.4 nM
767 nM | C[C@@H]1CN(C2CCc3ccc(Cl)cc3C2)C[C@H]1COc1ccc(S(C)(=O)=O)cc1 (stereo partly drawn) [Compound 14, (3S,4S)-1-[7-chloro-1,2,3,4-tetrahydronaphthalen-2-yl]-3-[(4-methanesulfonylphenoxy)methyl]-4-methylpyrrolidine] | 544 nM
380 nM | CC(Cc1cc(Cl)cc(C#N)c1)N1C[C@@H](COc2ccc(S(C)(=O)=O)cc2)[C@H](C)C1 (stereo partly drawn) [Compound 17, 3-chloro-5-[2-[(3S,4S)-3-[(4-methanesulfonylphenoxy)methyl]-4-methylpyrrolidin-1-yl]propyl]benzonitrile] | 527 nM
776 nM | C[C@@H]1CN(CCc2cccc(C#N)c2)C[C@H]1COc1cnc(S(C)(=O)=O)cn1 [Compound 20, 3-{2-[(3S,4S)-3-{[(5-methanesulfonylpyrazin-2-yl)oxy]methyl}-4-methylpyrrolidin-1-yl]ethyl}benzonitrile] | 1120 nM
138 nM | CS(=O)(=O)c1ccc(OC[C@@H]2CN(CCc3cccc(Cl)c3)C[C@H]2CO)cc1 [Compound 21, [(3S,4S)-1-[2-(3-chlorophenyl)ethyl]-4-[(4-methanesulfonylphenoxy)methyl]pyrrolidin-3-yl]methanol] | 280 nM
1560 nM | CS(=O)(=O)c1ccc(OC[C@H]2CN(CCc3cccc(Cl)c3)C[C@@H]2CO)cc1 [Compound 22, [(3R,4R)-1-[2-(3-chlorophenyl)ethyl]-4-[(4-methanesulfonylphenoxy)methyl]pyrrolidin-3-yl]methanol] | > 18800 nM
392 nM | Cc1c(C#N)cc(Cl)cc1CCN1C[C@@H](CO)[C@H](COc2ccc(S(C)(=O)=O)cc2)C1 [Compound 23, 5-chloro-3-{2-[(3S,4S)-3-(hydroxymethyl)-4-[(4-methanesulfonylphenoxy)methyl]pyrrolidin-1-yl]ethyl}-2-methylbenzonitrile] | 309 nM
310 nM | CS(=O)(=O)c1ccc(OC[C@@H]2CN(CCc3cc(Cl)cc(C#N)c3)C[C@H]2CO)cc1 [Compound 24, 3-chloro-5-{2-[(3S,4S)-3-(hydroxymethyl)-4-[(4-methanesulfonylphenoxy)methyl]pyrrolidin-1-yl]ethyl}benzonitrile] | 410 nM
343 nM | CS(=O)(=O)c1ccc(OC[C@@H]2CN(CCc3cccc(C#N)c3)C[C@H]2CO)cc1 [Compound 25, 3-{2-[(3S,4S)-3-(hydroxymethyl)-4-[(4-methanesulfonylphenoxy)methyl]pyrrolidin-1-yl]ethyl}benzonitrile] | 1010 nM
210 nM | C[C@@H]1C[C@H](COc2ccc(S(C)(=O)=O)nn2)CN1CCc1cccc(C#N)c1 [Compound 26, 3-{2-[(2R,4S)-4-{[(6-methanesulfonylpyridazin-3-yl)oxy]methyl}-2-methylpyrrolidin-1-yl]ethyl}benzonitrile] | 276 nM
554 nM | C[C@@H]1C[C@H](COc2ccc(S(C)(=O)=O)nc2)CN1CCc1cc(C#N)cc(C#N)c1 [Compound 39, 5-{2-[(2R,4S)-4-{[(6-methanesulfonylpyridin-3-yl)oxy]methyl}-2-methylpyrrolidin-1-yl]ethyl}benzene-1,3-dicarbonitrile] | 121 nM
534 nM | C[C@@H]1C[C@H](COc2ccc(S(=O)(=O)CCCS(C)(=O)=O)cc2)CN1C1CCc2c(C#N)cccc2C1 (stereo partly drawn) [Compound 40, 6-[(2R,4S)-4-{[4-(3-methanesulfonylpropanesulfonyl)phenoxy]methyl}-2-methylpyrrolidin-1-yl]-5,6,7,8-tetrahydronaphthalene-1-carbonitrile] | 74.6 nM
1360 nM | C[C@@H]1C[C@H](COc2ccc(S(=O)(=O)CCCS(C)(=O)=O)cc2)CN1C1CCc2c(C#N)cc(Cl)cc2C1 (stereo partly drawn) [Compound 43, 3-chloro-6-[(2R,4S)-4-{[4-(3-methanesulfonylpropanesulfonyl)phenoxy]methyl}-2-methylpyrrolidin-1-yl]-5,6,7,8-tetrahydronaphthalene-1-carbonitrile] | 350 nM
1610 nM | C[C@@H]1C[C@H](COc2ccc(S(=O)(=O)CCS(C)(=O)=O)cc2)CN1C1CCc2c(C#N)cc(Cl)cc2C1 (stereo partly drawn) [Compound 46, 3-chloro-6-[(2R,4S)-4-{[4-(2-methanesulfonylethanesulfonyl)phenoxy]methyl}-2-methylpyrrolidin-1-yl]-5,6,7,8-tetrahydronaphthalene-1-carbonitrile] | 418 nM
558 nM | C[C@@H]1C[C@H](COc2ccc(S(=O)(=O)CCS(C)(=O)=O)cc2)CN1C1CCc2ccc(Cl)cc2C1 (stereo partly drawn) [Compound 49, (2R,4S)-1-[7-chloro-1,2,3,4-tetrahydronaphthalen-2-yl]-4-{[4-(2-methanesulfonylethanesulfonyl)phenoxy]methyl}-2-methylpyrrolidine] | 193 nM
1020 nM | C[C@@H]1C[C@H](COc2ccc(S(=O)(=O)CCCS(C)(=O)=O)cc2)CN1C1CCc2ccc(Cl)cc2C1 (stereo partly drawn) [Compound 52, (2R,4S)-1-[7-chloro-1,2,3,4-tetrahydronaphthalen-2-yl]-4-{[4-(3-methanesulfonylpropanesulfonyl)phenoxy]methyl}-2-methylpyrrolidine] | 86.9 nM
876 nM | C[C@@H]1C[C@H](COc2ccc(S(=O)(=O)CCO)cc2)CN1C1CCc2c(C#N)cc(Cl)cc2C1 (stereo partly drawn) [Compound 55, 3-chloro-6-[(2R,4S)-4-{[4-(2-hydroxyethanesulfonyl)phenoxy]methyl}-2-methylpyrrolidin-1-yl]-5,6,7,8-tetrahydronaphthalene-1-carbonitrile] | 240 nM
581 nM | C[C@@H]1C[C@H](COc2ccc(S(=O)(=O)CCO)cc2)CN1C1CCc2ccc(C#N)cc2C1 (stereo partly drawn) [Compound 58, 7-[(2R,4S)-4-{[4-(2-hydroxyethanesulfonyl)phenoxy]methyl}-2-methylpyrrolidin-1-yl]-5,6,7,8-tetrahydronaphthalene-2-carbonitrile] | 43.5 nM
698 nM | C[C@@H]1C[C@H](COc2ccc(S(=O)(=O)CCO)cc2)CN1C1CCc2ccc(Cl)cc2C1 (stereo partly drawn) [Compound 61, 2-(4-{[(3S,5R)-1-[7-chloro-1,2,3,4-tetrahydronaphthalen-2-yl]-5-methylpyrrolidin-3-yl]methoxy}benzenesulfonyl)ethan-1-ol] | 63.3 nM
287 nM | C[C@@H]1C[C@H](COc2ccc(S(C)(=O)=O)nc2)CN1CCc1cccc(C#N)c1 [Compound 64, 3-{2-[(2R,4S)-4-{[(6-methanesulfonylpyridin-3-yl)oxy]methyl}-2-methylpyrrolidin-1-yl]ethyl}benzonitrile] | 50.9 nM
346 nM | C[C@@H]1C[C@H](COc2ccc(S(C)(=O)=O)nc2)CN1CCc1cc(Cl)cc(C#N)c1 [Compound 65, 3-chloro-5-{2-[(2R,4S)-4-{[(6-methanesulfonylpyridin-3-yl)oxy]methyl}-2-methylpyrrolidin-1-yl]ethyl}benzonitrile] | 49.8 nM
621 nM | CC(=O)N(C)CCS(=O)(=O)c1ccc(OC[C@H]2C[C@@H](C)N(CCc3cc(Cl)cc(C#N)c3)C2)cc1 [Compound 66, N-[2-(4-{[(3S,5R)-1-[2-(3-chloro-5-cyanophenyl)ethyl]-5-methylpyrrolidin-3-yl]methoxy}benzenesulfonyl)ethyl]-N-methylacetamide] | 76.8 nM
337 nM | CC(=O)N(C)CCS(=O)(=O)c1ccc(OC[C@H]2C[C@@H](C)N(CCc3cccc(C#N)c3)C2)cc1 [Compound 67, N-[2-(4-{[(3S,5R)-1-[2-(3-cyanophenyl)ethyl]-5-methylpyrrolidin-3-yl]methoxy}benzenesulfonyl)ethyl]-N-methylacetamide] | 50.3 nM
708 nM | C[C@@H]1CN(CCc2cccc(C#N)c2)C[C@H]1COc1ccc(S(C)(=O)=NCCS(C)(=O)=O)cc1 (stereo partly drawn) [Compound 68, 3-{2-[(3S,4S)-3-[(4-{[(2-methanesulfonylethyl)imino](methyl)oxo-λ^6-sulfanyl}phenoxy)methyl]-4-methylpyrrolidin-1-yl]ethyl}benzonitrile] | 366 nM
